Target: T1, human ΔF508-CFTR (Homo sapiens, UniProt P13569, DEL508-508)
T1 construct: expressed in transfected cells
Test: CFTR-YFP high throughput assay, CFTR corrector protocol (YFP iodide flux quench)
Type: cell-based
Conditions: FRT cells expressing human ΔF508-CFTR and YFP-H148Q/I152L, 24-26 h incubation with compound; for Emax: normalized to the positive control, read-out: EMAX (% Efficacy, EMAX normalized to the positive control); for EC50: stimulated with 20 μM Forskolin & 30 μM P3
Description: Assays for Detecting and Measuring the Effect of Compounds on dF508-CFTR Channels CFRT-YFP High Throughput Assay-CFTR Corrector Protocol:
This protocol is designed to selectively screen small molecule compounds for F508del CFTR corrector activities in the HTS YFP flux assay. In this protocol, the cells are incubated with testing compounds for 24 hours, washed with PBS, stimulated with forskolin and a standard potentiator, and read on a 384-well HTS plate reader, such as the Hamamatsu FDDD-6000.
YFP fluorescence intensity is acquired at high speed before and after iodide buffer is injected to the assay cells. Iodide enters the cells via active CFTR channels in the plasma membrane, and quenches the YFP fluorescence. The rate of fluorescence quenching is proportionally related to the total CFTR activities in the cell membrane. dF508-CFTR corrector accelerates YFP quenching by increasing the number of CFTR molecules in the testing cell plasma membrane.
This method was initially developed for bench top plate readers (Galietta et al., 2001), and was adapted to the HTS format (Sui et al. Assay Drug Dev. Technol. 2010).
Fisher Rat Thyroid (FRT) cells stably expressing both human ΔF508-CFTR and a halide-sensitive yellow fluorescent protein (YFP-H148Q/I152L 25,22) (Galietta et al., Am. J. Physiol Cell Physiol, 281(5), C1734, 2001) were cultured on plastic surface in Coon's modified Ham's F12 medium supplemented with FBS 10%, L-glutamine 2 mM, penicillin 100 U/ml, and streptomycin 100 μg/ml. G418 (0.75-1.0 mg/ml) and zeocin (3.2 ug/ml) were used for selection of FRT cells expressing ΔF508-CFTR and YFP. For primary screening, FRT cells were plated into 384-well black wall, transparent bottom microtiter plates (Costar; Corning Inc.) at a cell density of 20,000-40,000 per well. Test compound was applied to the cells at varying concentrations ranging from 2 nM-[…] in either a 2-fold or 3-fold dilution series. Cells were incubated in a cell culture incubator at 37° C. with 5% CO2 for 24-26 h. Assay plates were washed with DPBS media (Thermo, cat #SH30028.02) to remove unbound cells and compound. Stimulation media (25 μL) containing 20 μM Forskolin & 30 μM P3 [6-(Ethyl-phenyl-sulfonyl)-4-oxo-1,4-dihydro-quinoline-3-carboxylic acid 2-methoxy-benzylamide] in Hams F-12 coon's modified media was added to the plate wells and incubated at room temperature for 60-120 min. 25 μL of HEPES-PBS -I buffer (10 mM HEPES, 1 mM MgCl2, 3 mM KCl, 1 mM CaCl2, 150 mM NaI) was then added and fluorescence quench curves (Excitation 500 nm/Emission 540 nm; exposure 136 ms) were immediately recorded on an FDSS-6000 plate reader (Hamamatsu). Quench rates were derived from least squares fitting of the data as described by Sui et al. (2010).

T1 sequence (P13569 with tags, fused parts or gaps DEL508-508): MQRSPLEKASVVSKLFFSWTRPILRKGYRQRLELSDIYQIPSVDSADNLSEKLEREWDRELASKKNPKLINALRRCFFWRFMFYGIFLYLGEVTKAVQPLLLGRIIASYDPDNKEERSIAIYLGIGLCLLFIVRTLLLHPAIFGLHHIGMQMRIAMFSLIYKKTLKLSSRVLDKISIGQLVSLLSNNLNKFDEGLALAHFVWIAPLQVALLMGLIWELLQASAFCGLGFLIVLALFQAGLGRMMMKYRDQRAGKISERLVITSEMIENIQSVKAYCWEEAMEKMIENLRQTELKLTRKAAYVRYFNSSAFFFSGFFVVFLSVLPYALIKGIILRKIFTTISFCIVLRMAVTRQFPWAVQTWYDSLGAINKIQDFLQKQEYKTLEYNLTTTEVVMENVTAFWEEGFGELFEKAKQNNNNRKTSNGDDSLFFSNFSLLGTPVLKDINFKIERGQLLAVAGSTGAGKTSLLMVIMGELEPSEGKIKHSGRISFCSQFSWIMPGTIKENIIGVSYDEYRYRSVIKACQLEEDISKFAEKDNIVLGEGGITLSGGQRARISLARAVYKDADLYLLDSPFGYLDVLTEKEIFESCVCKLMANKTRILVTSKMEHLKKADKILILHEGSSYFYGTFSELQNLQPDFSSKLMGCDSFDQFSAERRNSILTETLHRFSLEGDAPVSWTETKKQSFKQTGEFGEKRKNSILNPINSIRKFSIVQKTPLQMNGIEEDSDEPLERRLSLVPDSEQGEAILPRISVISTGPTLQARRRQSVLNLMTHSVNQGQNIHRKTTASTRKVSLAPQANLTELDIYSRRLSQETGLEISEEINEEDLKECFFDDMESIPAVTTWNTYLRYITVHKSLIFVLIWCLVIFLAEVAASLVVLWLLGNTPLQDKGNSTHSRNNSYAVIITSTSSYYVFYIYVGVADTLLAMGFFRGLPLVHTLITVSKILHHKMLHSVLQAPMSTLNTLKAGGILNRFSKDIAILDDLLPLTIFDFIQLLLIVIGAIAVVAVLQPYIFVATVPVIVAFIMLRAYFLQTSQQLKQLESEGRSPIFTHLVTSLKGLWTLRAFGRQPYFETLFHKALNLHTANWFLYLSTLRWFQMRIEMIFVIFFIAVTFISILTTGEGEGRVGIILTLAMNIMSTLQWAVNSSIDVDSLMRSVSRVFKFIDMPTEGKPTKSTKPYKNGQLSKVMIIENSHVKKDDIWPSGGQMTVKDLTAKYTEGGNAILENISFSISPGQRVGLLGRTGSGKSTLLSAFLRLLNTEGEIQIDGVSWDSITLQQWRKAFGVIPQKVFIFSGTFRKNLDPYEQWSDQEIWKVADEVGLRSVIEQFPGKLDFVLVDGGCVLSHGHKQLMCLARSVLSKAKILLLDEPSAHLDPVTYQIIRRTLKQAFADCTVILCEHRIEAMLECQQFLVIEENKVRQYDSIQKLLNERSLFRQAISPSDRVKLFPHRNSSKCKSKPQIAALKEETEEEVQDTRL

Row | SMILES | Emax [%] | EC50 [µM]
1 | CCc1ccc(S(=O)(=O)N2CCC(n3c(-c4ccccc4)nc4cccnc43)CC2)cc1 [Example 4, 3-(1-((4-Ethylphenyl)sulfonyl)piperidin-4-yl)-2-phenyl-3H-imidazo[4,5b]pyridine] | 30 to 80 | > 20
2 | Cc1ccc2nc(-c3ccncc3Cl)n(C3CCN(S(=O)(=O)c4ccc5c(c4)OCO5)CC3)c2n1 [Example 14, 3-(1-(Benzo[d][1,3]dioxol-5-ylsulfonyl)piperidin-4-yl)-2-(3-chloropyridin-4-yl)-5-methyl-3H-imidazo[4,5-b]pyridine] | 10 to 30 | > 20
3 | COc1ccc(S(=O)(=O)N2CCC(n3c(-c4cnc[nH]4)nc4cccnc43)CC2)cc1Cl [Example 32] | 30 to 80 | > 20
4 | COc1ccc(S(=O)(=O)N2CCC(n3c(-c4ccccc4)nc4cccnc43)CC2)cc1Cl [Example 16] | > 80 | 10 to 20
5 | COc1ccc(S(=O)(=O)N2CCC(n3c(-c4nc5ccccc5[nH]4)nc4cccnc43)CC2)cc1Cl [Example 33] | 30 to 80 | 10 to 20
6 | Cc1ccc2nc(-c3ccncc3Cl)n(C3CCN(S(=O)(=O)c4ccc5c(c4)OC(F)(F)O5)CC3)c2n1 [Example 13, 2-(3-Chloropyridin-4-yl)-3-(1-((2,2-difluorobenzo[d][1,3]dioxol-5-yl)sulfonyl)piperidin-4-yl)-5-methyl-3H-imidazo[4,5-b]pyridine] | 30 to 80 | < 10
7 | Cc1ccc(S(=O)(=O)N2CCC(n3c(-c4ccccc4Cl)nc4cccnc43)CC2)cc1Cl [Example 10, 3-(1-((3-Chloro-4-methylphenyl)sulfonyl)piperidin-4-yl)-2-(2-chlorophenyl)-3H-imidazo[4,5-b]pyridine] | 30 to 80 | < 10
8 | COc1ccc(S(=O)(=O)N2CCC(n3c(C4CCCCC4)nc4cccnc43)CC2)cc1Cl [Example 31] | 30 to 80 | < 10
9 | COc1ccc(S(=O)(=O)N2CCC(n3c(-c4cccc(C)c4)nc4cccnc43)CC2)cc1Cl [Example 23] | > 80 | < 10
10 | COc1ccc(S(=O)(=O)N2CCC(n3c(-c4cccnc4)nc4cccnc43)CC2)cc1Cl [Example 27] | 30 to 80 | < 10
11 | COc1ccc(C(=O)N2CCC(n3c(-c4ccccc4)nc4cccnc43)CC2)cc1Cl [Example 21] | 10 to 30 | > 20
12 | COc1ccc(S(=O)(=O)N2CCC(n3c(-c4ccc(Cl)cc4Cl)nc4cccnc43)CC2)cc1Cl [Example 12, 3-(1-((3-Chloro-4-methoxyphenyl)sulfonyl)piperidin-4-yl)-2-(2,4-dichlorophenyl)-3H-imidazo[4,5-b]pyridine] | 10 to 30 | < 10
13 | COc1ccc(S(=O)(=O)N2CCC(n3c(-c4ccccc4)nc4cccnc43)CC2)cc1F [Example 18] | 30 to 80 | < 10
14 | COc1ccc(S(=O)(=O)N2CCC(n3c(-c4ccccc4)nc4cccnc43)CC2)cc1 [Example 19] | 30 to 80 | < 10
15 | COc1ccc(S(=O)(=O)N2CCC(n3c(-c4ccccc4)nc4ccc(C)nc43)CC2)cc1Cl [Example 3, 3-(1-((3-Chloro-4-methoxyphenyl)sulfonyl)piperidin-4-yl)-5-methyl-2-phenyl-3H-imidazo[4,5-b]pyridine] | 30 to 80 | < 10

The next lines start with the values.

Row | Emax [%] | EC50 [µM] | SMILES
16 | 30 to 80 | < 10 | COc1ccc(S(=O)(=O)N2CCC(n3c(-c4ccccc4F)nc4cccnc43)CC2)cc1Cl [Example 11, 3-(1-((3-Chloro-4-methoxyphenyl)sulfonyl)piperidin-4-yl)-2-(2-fluorophenyl)-3H-imidazo[4,5-b]pyridine]
17 | 30 to 80 | < 10 | COc1ccc(S(=O)(=O)N2CCC(n3c(-c4ccccc4O)nc4cccnc43)CC2)cc1Cl [Example 9, 2-(3-(1-((3-Chloro-4-methoxyphenyl)sulfonyl)piperidin-4-yl)-3H-imidazo[4,5-b]pyridin-2-yl)phenol]
18 | 30 to 80 | < 10 | COc1ccc(S(=O)(=O)N2CCC(n3c(-c4ccccc4Cl)nc4cccnc43)CC2)cc1Cl [Example 6, 3-(1-((3-Chloro-4-methoxyphenyl)sulfonyl)piperidin-4-yl)-2-(2-chlorophenyl)-3H-imidazo[4,5-b]pyridine]
19 | 30 to 80 | < 10 | Cc1ccc2nc(-c3ccccc3Cl)n(C3CCN(S(=O)(=O)c4ccc(C)c(Cl)c4)CC3)c2n1 [Example 7, 3-(1-((3-Chloro-4-methylphenyl)sulfonyl)piperidin-4-yl)-2-(2-chlorophenyl)-5-methyl-3H-imidazo[4,5-b]pyridine]
20 | 30 to 80 | < 10 | Cc1ccc(S(=O)(=O)N2CCC(n3c(-c4ccccc4)nc4cccnc43)CC2)cc1 [Example 17]
21 | 30 to 80 | < 10 | COc1ccc(S(=O)(=O)N2CCC(n3c(-c4cccc(Cl)c4)nc4cccnc43)CC2)cc1Cl [Example 22]
22 | 30 to 80 | < 10 | COc1ccc(S(=O)(=O)N2CCC(n3c(-c4ccccc4)nc4cc(Cl)cnc43)CC2)cc1Cl [Example 35]
23 | 30 to 80 | < 10 | Cc1ccc2nc(-c3cccnc3Cl)n(C3CCN(S(=O)(=O)c4ccc5c(c4)OC(F)(F)O5)CC3)c2n1 [Example 15, 2-(2-Chloropyridin-3-yl)-3-(1-((2,2-difluorobenzo[d][1,3]dioxol-5-yl)sulfonyl)piperidin-4-yl)-5-methyl-3H-imidazo[4,5-b]pyridine]
24 | 10 to 30 | < 10 | COc1ccc(S(=O)(=O)N2CCC(n3c(-c4ccccc4)nc4ccc(Cl)nc43)CC2)cc1Cl [Example 36]
25 | 30 to 80 | < 10 | COc1cc(S(=O)(=O)N2CCC(n3c(-c4ccccc4)nc4cccnc43)CC2)ccc1Cl [Example 37]
26 | 30 to 80 | < 10 | COc1ccc(S(=O)(=O)N2CCC(n3c(-c4ccc5[nH]cnc5c4)nc4cccnc43)CC2)cc1Cl [Example 34]
27 | 30 to 80 | < 10 | COc1ccc(S(=O)(=O)N2CCC(n3c(-c4ccccc4Cl)nc4ccc(C)nc43)CC2)cc1F [Example 8, 2-(2-Chlorophenyl)-3-(1-((3-fluoro-4-methyoxyphenyl)sulfonyl)piperidin-4-yl)-5-methyl-3H-imidazo[4,5-b]pyridine]
28 | 30 to 80 | < 10 | O=S(=O)(c1ccc2c(c1)OCO2)N1CCC(n2c(-c3ccccc3Cl)nc3cccnc32)CC1 [Example 1, 3-(1-(Benzo[d][1,3]dioxol-5-ylsulfonyl)piperidin-4-yl)-2-(2-chlorophenyl)-3H-imidazo[4,5-b]pyridine]
29 | 30 to 80 | < 10 | Cc1ccc(S(=O)(=O)N2CCC(n3c(-c4ccccc4)nc4cccnc43)CC2)cc1Cl [Example 20]
30 | 10 to 30 | < 10 | COc1ccc(S(=O)(=O)N2CCC(n3c(-c4ccc(Cl)cc4)nc4cccnc43)CC2)cc1Cl [Example 29]
31 | 30 to 80 | < 10 | Cc1ccc2nc(-c3ccccc3Cl)n(C3CCN(S(=O)(=O)c4ccc5c(c4)OCO5)CC3)c2n1 [Example 2]
32 | 30 to 80 | < 10 | COc1ccc(S(=O)(=O)N2CCC(n3c(C4CCCC4)nc4cccnc43)CC2)cc1Cl [Example 25]
33 | 30 to 80 | < 10 | COc1ccc(S(=O)(=O)N2CCC(n3c(-c4ccccc4C)nc4cccnc43)CC2)cc1Cl [Example 30]
34 | 30 to 80 | < 10 | COc1ccc(S(=O)(=O)N2CCC(n3c(-c4ccncc4)nc4cccnc43)CC2)cc1Cl [Example 28]
35 | 30 to 80 | < 10 | COc1ccc(S(=O)(=O)N2CCC(n3c(-c4ccc(C)cc4)nc4cccnc43)CC2)cc1Cl [Example 24]
36 | 30 to 80 | < 10 | COc1ccc(S(=O)(=O)N2CCC(n3c(-c4ccccc4)nc4cc(C)cnc43)CC2)cc1Cl [Example 26]
